“And” between values parts separate entries of the source, which are not always exact repeats. Equal values may be shown once.
What was measured:
[1] = Plasma pharmacokinetics of acalabrutinib and ACP‐5862; assay type: in vivo, Japanese patients; settings: for M/P ratio (metabolite to parent), AUC / M/P ratio (metabolite to parent), AUC0–12 / M/P ratio (metabolite to parent), AUC0–t / M/P ratio (metabolite to parent), Cmax: part 1
BTK = settings: no reference given; cited from earlier work
[2] = multiple dose 100 mg BID, day 8, part 1
[3] = multiple dose 100 mg BID, day 8, part 1, fasting
[4] = single dose 100 mg acalabrutinib, part 1, fasting

## CC#CC(=O)NCCCC(=O)c1nc(-c2ccc(C(=O)Nc3ccccn3)cc2)c2c(N)nccn12 [ACP‐5862]
[1]; [2]
  RAC (extent of accumulation on multiple dosing), Amean ± SD: 2.72 and 2.722 ± 2.826
  TC (time dependency of pharmacokinetics), Amean ± SD: 1.444 ± 0.8136
[1]; [3]
  AUC0–12, Gmean (CV): 1987 (8%) ng∙h/mL
  AUC0–t, Gmean (CV): 1985 (8%) ng∙h/mL
  AUC (zero to infinity), Gmean (CV): 2099 (7%) ng∙h/mL
  Cmax, Gmean (CV): 629.7 (27%) ng/mL
  t1/2, Amean ± SD: 3.216 ± 0.3938 h
  tmax, median (min, max): 0.940 (0.750, 1.080) h
[1]; multiple dose
  M/P ratio (metabolite to parent), AUC: 1.73
  M/P ratio (metabolite to parent), AUC0–12: 1.64
  M/P ratio (metabolite to parent), AUC0–t: 1.65
  M/P ratio (metabolite to parent), Cmax: 0.56
[1]; [4]
  AUC0–12, Gmean (CV): 1092 (124%) ng∙h/mL
  AUC0–t, Gmean (CV): 1306 (94%) ng∙h/mL
  AUC (zero to infinity), Gmean (CV): 1557 (60%) ng∙h/mL
  Cmax, Gmean (CV): 316.5 (260%) ng/mL
  t1/2, Amean ± SD: 10.18 ± 7.986 h
  tmax, median (min, max): 0.965 (0.900, 4.000) h
[1]; single dose
  M/P ratio (metabolite to parent), AUC: 1.40
  M/P ratio (metabolite to parent), AUC0–12: 1.23
  M/P ratio (metabolite to parent), AUC0–t: 1.36
  M/P ratio (metabolite to parent), Cmax: 0.53
BTK
  Potency for BTK inactivation relative to the parent agent acalabrutinib: approximately 50%

— article PMC8177795 (Cancer Science, 2021)
